We go through 6 compounds from patent US20240360144A1, “PYRAZOLOPYRIMIDINE ESTER COMPOUND” (Shanghai Maius Pharmaceutical Co. Ltd., priority 2021, published 2024).

Like-named read-outs stand apart in the source and are kept apart here.

The nature of this data set: Pharmacokinetic assays of compounds after oral gavage administration to rats. It counts as in vivo, male SD rats. Also on record: AUMC(0-t) / AUMC(0-∞): unit not given here. Particulars: for AUC as percentage of that of 4-AAM administered at the same molar amount: relative to 4-AAM directly administered. The procedure:
Example 13: Pharmacokinetic Assays of Compounds
Instruments: ultra high performance liquid chromatography (Acquity UPLC, Waters) system; triple quadrupole mass spectrometer (Qtrap 5500, Sciex); high-speed refrigerated centrifuge (5430R, Eppendorf).
Chromatography Conditions: Column: Waters BEH C18 2.1×50 mm ([…]); Column Temperature: 45° C.; Mobile Phase: 0.1% aqueous solution of formic acid (A)/acetonitrile; Gradient: see Table 2 below: […]
Mass Spectrometry Condition: Mode: positive ion multiple reaction monitoring (MRM); Curtain Gas: 45 psi; Gas 1: 45 psi; Gas 2: 45 psi; Ion Source Temperature: 500° C.; Ion Source Voltage: 5000 V.
Experimental Animals: male SD rats, weighing 200-240 grams, fasting overnight before experiments.
Each suspension is prepared before administration.
Each sample was placed in an ice bath, centrifuged for plasma collection, frozen and stored.
Plasma Drug Concentration Data and Calculation of Pharmacokinetic Parameters:
Plasma drug concentration data was processed using MultiQuan 3.0 (Sciex), and pharmacokinetic parameters were calculated using the DAS 2.0 software. Plasma drug concentrations were measured in ug/L.

Setting [1] is: male SD rats, oral gavage, 30.0 mg/kg, suspension in 0.5% CMC-Na, plasma.

A word on the AUC(0-t): it is exposure summed from dosing to a finite time, without extrapolation to infinity. Usually Cmax stands for the maximum level reached in the sampled fluid or tissue. The term Tmax denotes the time at which the peak concentration occurs. Consider `C=CC(=O)N1CCC[C@@H](n2nc(-c3ccc(Oc4ccccc4)cc3)c3c(NC(=O)OC(C)C)ncnc32)C1` [Compound 1], for which, under setting [1], the “AUC(0-t)” value worked out at 1038.6 ng·h/mL, the “AUC(0-∞)” value was 1059.6 ng·h/mL, the “AUMC(0-t)” value is listed as 2950.4 and the “AUMC(0-∞)” value is given as 3200.9. Also, under setting [1], the CLz/F was 472 mL/min/kg, the maximum concentration (Cmax) turned out to be 257.2 ng/mL, the “MRT(0-t)” value was 2.8 h and the “MRT(0-∞)” value is 3.0 h. Further, under setting [1], the Tmax came out at 1.0 h, the “VRT(0-t)” value is listed as 4.6 h^2, the “VRT(0-∞)” value was 6.3 h^2 and the t½z is 1.7 h. For the same compound, where the note is “rats, oral gavage”, the mean retention time turned out to be 2.8 h and the “time to peak concentration” value was found to be 1 h. Also, for the setting “rats, oral gavage, in words”, the “AUC compared with 4-AAM administered at the same molar amount” value (“AUC compared with 4-AAM administered” for short) is given as “much greater AUC”.
Take `C=CC(=O)N1CCC[C@@H](n2nc(-c3ccc(Oc4ccccc4)cc3)c3c(NC(=O)OCCC)ncnc32)C1` [Compound 2]: under setting [1], the “AUC(0-t)” value is 663.0 ng·h/mL, the “AUC(0-∞)” value amounted to 706.3 ng·h/mL, the “AUMC(0-t)” value amounted to 2844.3 and the “AUMC(0-∞)” value turned out to be 3495.04. Also, under setting [1], the CLz/F is 708 mL/min/kg, the Cmax turned out to be 111.0 ng/mL, the “MRT(0-t)” value is on record as 4.29 h and the “MRT(0-∞)” value is listed as 4.9 h. Further, under setting [1], the Tmax is listed as 2.0 h, the “VRT(0-t)” value is 7.2 h^2, the “VRT(0-∞)” value turned out to be 13.5 h^2 and the t½z was 2.338 h. In addition, where the note is “rats, oral gavage”, the mean retention time is 4.3 h, the “time to peak concentration” value was determined as 2 h and the “AUC as percentage of that of 4-AAM administered at the same molar amount” value (shortened to “AUC as percentage”) is recorded as 88%.
Turning to `C=CC(=O)N1CCC[C@@H](n2nc(-c3ccc(Oc4ccccc4)cc3)c3c(NC(=O)OCCCC)ncnc32)C1` [Compound 3], under setting [1], the “AUC(0-t)” value worked out at 1366.7 ng·h/mL, the “AUC(0-∞)” value is 1375.6 ng·h/mL, the “AUMC(0-t)” value is recorded as 3939.9 and the “AUMC(0-∞)” value is 4052.0. Also, under setting [1], the CLz/F was determined as 363 mL/min/kg, the Cmax amounted to 304.4 ng/mL, the “MRT(0-t)” value stood at 2.9 h and the “MRT(0-∞)” value was found to be 2.9 h. In addition, under setting [1], the time of peak concentration (Tmax) turned out to be 2.0 h, the “VRT(0-t)” value was 3.3 h^2, the “VRT(0-∞)” value is 3.8 h^2 and the t½z came to 1.3 h. Moreover, under “rats, after oral absorption, in words”, the “hydrolysis in the blood plasma into the 4-amino active metabolite (4-AAM)” value is given as “highest rate”. Where the note is “rats, oral gavage”, the mean retention time is listed as 2.9 h, the “time to peak concentration” value stood at 2 h and the “AUC as percentage” value is recorded as 180%. Moreover, the “AUC compared with 4-AAM administered” value (rats, oral gavage, in words) is recorded as “much greater AUC”.
By AUC(0-inf) is commonly meant the area under the concentration-time curve extrapolated to infinity. Turning to `C=CC(=O)N1CCC[C@@H](n2nc(-c3ccc(Oc4ccccc4)cc3)c3c(N)ncnc32)C1` [Compound 4-AAM, 1-[(3R)-3-[4-amino-3-(4-phenoxyphenyl)-1H-pyrazolo[3,4-D]pyrimidin-1-yl]-1-piperidinyl]-2-propen-1-one, reference compound], under setting [1], the “AUMC(0-t)” value was 1316.6, the “AUMC(0-∞)” value worked out at 2805.6, the “VRT(0-t)” value was found to be 2.0 h^2 and the “VRT(0-∞)” value is 47.6 h^2. The compound further came in with a t½z under setting [1] of 8.9 h. The same compound came in with an AUC(0-inf) (rat, male SD rats, oral gavage, 30.0 mg/kg, suspension in 0.5% CMC-Na, plasma) of 822 ng·h/mL. Moreover, for the setting “rat, male SD rats, oral gavage, 30.0 mg/kg, suspension in 0.5% CMC-Na, plasma, read-out: AUC(0-t)”, the AUC(0-t) came to 758 ng·h/mL. In addition, the Cmax (rat, male SD rats, oral gavage, 30.0 mg/kg, suspension in 0.5% CMC-Na, plasma, read-out: Cmax) was determined as 312 ng/mL. Also, under “rat, male SD rats, oral gavage, 30.0 mg/kg, suspension in 0.5% CMC-Na, plasma, read-out: MRT(0-t)”, the MRT last is 1.7 h. Also, the MRT inf (rat, male SD rats, oral gavage, 30.0 mg/kg, suspension in 0.5% CMC-Na, plasma, read-out: MRT(0-∞)) stood at 3.4 h.
As for `C=CC(=O)N1CCC[C@@H](n2nc(-c3ccc(Oc4ccccc4)cc3)c3c(NC(=O)OCC(C)C)ncnc32)C1` [Compound 4], under setting [1], the “AUC(0-t)” value is 964.1 ng·h/mL, the “AUC(0-∞)” value was 976.4 ng·h/mL, the “AUMC(0-t)” value was 2405.5 and the “AUMC(0-∞)” value was determined as 2586.7. Besides, under setting [1], the CLz/F came out at 512 mL/min/kg, the Cmax was 256.7 ng/mL, the “MRT(0-t)” value is 2.5 h and the “MRT(0-∞)” value came out at 2.6 h. Further, under setting [1], the Tmax came out at 2.0 h, the “VRT(0-t)” value was determined as 2.9 h^2, the “VRT(0-∞)” value amounted to 4.8 h^2 and the t½z came to 2.5 h. Moreover, for the setting “rats, oral gavage”, the mean retention time was determined as 2.5 h, the “time to peak concentration” value is 2 h and the “AUC as percentage” value is reported as 127%. Where the note is “rats, oral gavage, in words”, the “AUC compared with 4-AAM administered” value is on record as “much greater AUC”.
In the case of `C=CC(=O)N1CCC[C@@H](n2nc(-c3ccc(Oc4ccccc4)cc3)c3c(NC(=O)OCCCCCC)ncnc32)C1` [Compound 5], under setting [1], the “AUC(0-t)” value stood at 584.0 ng·h/mL, the “AUC(0-∞)” value turned out to be 587.1 ng·h/mL, the “AUMC(0-t)” value is recorded as 1659.5 and the “AUMC(0-∞)” value was 1696.7. For the same compound, under setting [1], the CLz/F turned out to be 852 mL/min/kg, the Cmax is 143.9 ng/mL, the “MRT(0-t)” value is listed as 2.8 h and the “MRT(0-∞)” value is reported as 2.9 h. Under setting [1], the time to peak (Tmax) is on record as 2.0 h, the “VRT(0-t)” value came out at 3.0 h^2, the “VRT(0-∞)” value is 3.5 h^2 and the t½z came to 1.3 h.
